Assay results taken from PMC4787765 (Nucleic Acids Research, 2015).
Read-outs that look alike come from different tables or passages of the source. Values belong to the compound of their own block, whether it stands above or below them.

Columns and labels:
[1] = target: eIF2B(βδ)2 complex (Chaetomium thermophilum, untagged full-length subunits) (Chaetomium thermophilum); assay: SEC-MALS
[2] = target: Chaetomium thermophilum eIF2Bα (Chaetomium thermophilum); assay: SEC-MALS
eIF2Bα (cteIF2Bα) [3] = assay: ITC; assay type: binding, Thermochaetoides thermophila
eIF2Bα (cteIF2Bα) [4] = assay: ITC; assay type: binding, Thermochaetoides thermophila; remark: listed apart in the source
eIF2Bα (cteIF2Bα) [5] = assay: ITC; assay type: binding, Thermochaetoides thermophila; remark: listed apart in the source

stoichiometry N [1]: 1
stoichiometry N [2]: 2
Compound: Chaetomium thermophilum eIF2Bα (natural protein)

Kd (eIF2Bα (cteIF2Bα) [3]): 65 µM
Compound: Nc1ccn([C@@H]2O[C@H](COP(=O)(O)O)[C@@H](O)[C@H]2O)c(=O)n1 [CMP]

Kd (eIF2Bα (cteIF2Bα) [4]): 10 µM
Compound: Nc1ncnc2c1ncn2[C@@H]1O[C@H](COP(=O)(O)O)[C@@H](O)[C@H]1O [AMP]

Kd (eIF2Bα (cteIF2Bα) [5]): 2.9 µM
Compound: Nc1nc2c(ncn2[C@@H]2O[C@H](COP(=O)(O)O)[C@@H](O)[C@H]2O)c(=O)[nH]1 [GMP]
